Experimental data published in the NIST ThermoML archive (doi:10.1021/je501033z).
Values joined by “and” are separate entries in the source; they are usually repeats but may differ in a detail not shown here. Identical values can stand only once.

Conditions: Liquid, Closed cell (Static) method

CO [methanol]
Conditions	vapor or sublimation pressure [kPa]
274.15 K	4.252
278.15 K	5.501
283.15 K	7.411
293.15 K	13
303.15 K	21.86
313.15 K	35.43
323.15 K	55.54
333.15 K	84.93
343.15 K	125.74
353.15 K	181.56
363.15 K	256.27
373.15 K	354.35
383.15 K	480.82
393.15 K	641.27
403.15 K	841.83
413.15 K	1089.2

O [water]
Conditions	vapor or sublimation pressure
279.48 K	0.953 kPa
286.16 K	1.508 kPa
291.39 K	2.094 kPa
293.14 K	2.337 kPa
296.31 K	2.839 kPa
296.32 K	2.834 kPa
298.81 K	3.288 kPa
301.37 K	3.827 kPa
303.57 K	4.36 kPa
307.73 K	5.507 kPa
308.26 K	5.666 kPa
312.87 K	7.275 kPa
313.07 K	7.345 kPa
314.62 K	7.977 kPa
318.13 K	9.585 kPa and 9.578 kPa
322.99 K	12.26 kPa
323.1 K	12.32 kPa
323.17 K	12.36 kPa
328.14 K	15.75 kPa
328.88 K	16.31 kPa
